Source: US11306064B2, “Benzothia(di)azepine compounds and their use as bile acid modulators” (Albireo AB, priority 2018, dated 2022)

Columns and labels:
Assay type in all cases: cell-based
Human LBAT = biological target: T1, Human LBAT (Homo sapiens, UniProt Q14973); assay: LBAT (h/m) assay: 3H-taurocholic acid uptake in human LBAT-overexpressing cells; settings: 0.3 μM 3H-taurocholic acid and 7.5 μM cold taurocholic acid, 20 minutes, read-out: hLBAT IC50
T1 construct: expressed in transfected cells; kept under Geneticin selection
T1 sequence (Q14973 1-349): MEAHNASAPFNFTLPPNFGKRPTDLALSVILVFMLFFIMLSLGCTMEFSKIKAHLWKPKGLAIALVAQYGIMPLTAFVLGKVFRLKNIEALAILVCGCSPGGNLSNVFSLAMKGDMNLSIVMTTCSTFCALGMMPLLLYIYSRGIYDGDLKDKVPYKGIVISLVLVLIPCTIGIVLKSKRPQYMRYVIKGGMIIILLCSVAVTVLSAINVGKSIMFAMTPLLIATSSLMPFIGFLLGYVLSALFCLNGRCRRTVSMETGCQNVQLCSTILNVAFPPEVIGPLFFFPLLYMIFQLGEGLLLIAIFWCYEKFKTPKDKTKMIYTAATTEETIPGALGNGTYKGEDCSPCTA
Method in brief: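 LBAT-overexpressing cells, serum-free MEM-alpha, 20 min at 37° C with inhibitor (3-fold, 10-point) plus 0.3 μM 3H-taurocholic acid and cold taurocholic acid (7.5 μM human; 25 μM mouse), 0.2% DMSO. Stopped on ice, washed with 1 mM unlabelled taurocholate; uptake by scintillation counting.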

Human ASBT = biological target: T2, Human ASBT (Homo sapiens, UniProt Q12908); assay: ASBT (h/m) assay: 3H-taurocholic acid uptake in human ASBT-overexpressing cells; settings: 0.25 μM 3H-taurocholic acid and 5 μM cold taurocholic acid, 20 minutes, read-out: hASBT IC50
T2 construct: expressed in transfected cells; kept under Puromycin selection
T2 sequence (Q12908 1-348): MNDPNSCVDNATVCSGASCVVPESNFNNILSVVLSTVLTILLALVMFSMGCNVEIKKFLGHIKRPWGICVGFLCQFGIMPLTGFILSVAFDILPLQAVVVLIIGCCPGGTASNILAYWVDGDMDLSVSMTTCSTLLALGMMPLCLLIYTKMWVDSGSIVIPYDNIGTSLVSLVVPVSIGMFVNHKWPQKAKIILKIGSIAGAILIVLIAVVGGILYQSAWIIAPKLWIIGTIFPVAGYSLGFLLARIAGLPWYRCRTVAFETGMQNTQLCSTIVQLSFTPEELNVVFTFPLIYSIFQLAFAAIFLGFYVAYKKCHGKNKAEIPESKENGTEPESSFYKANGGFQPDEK
Method in brief: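 ASBT-overexpressing cells, seeded 48 h earlier, took up 0.25 µM 3H-taurocholic acid plus 5 µM cold taurocholate for 20 min at 37 °C with inhibitor (10-point 3-fold series, top 10 µM, 0.2% DMSO). Ice stop, washes with cold 1 mM taurocholate in HEPES-HBSS pH 7.4, scintillation counting.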

HepaRG cells = assay: HepaRG-based assay: 3H-taurocholic acid uptake in differentiated HepaRG cells; settings: 0.3 μM 3H-taurocholic acid and 7.5 μM cold taurocholic acid, 30 minutes
Method in brief: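 Differentiated HepaRG cells cultured 7 days post-seeding were exposed for 30 min at 37 °C to 0.3 μM 3H-taurocholic acid plus 7.5 μM cold taurocholic acid with inhibitor (3-fold dilutions, 0.2% DMSO). Uptake was stopped on ice, washed with 1 mM unlabelled taurocholic acid, and counted by scintillation.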

Row | Compound | IC50 (Human LBAT) [µM] | IC50 (Human ASBT) [µM] | IC50 (HepaRG cells; Homo sapiens, HepaRG) [µM] | IC50 (HepaRG cells) [µM]
1 | CCCCC1(CC)CN(c2ccccc2)c2cc(Br)c(O/C=C(\F)C(=O)O)cc2S(=O)(=O)N1C (stereo not drawn) [Example 106, (Z)-3-((7-bromo-3-butyl-3-ethyl-2-methyl-1,1-dioxido-5-phenyl-2,3,4,5-tetrahydro-1,2,5-benzothiadiazepin-8-yl)oxy)-2-fluoroacrylic Acid] | 0.031 | 0.673 | 0.246 | 
2 | CCCCC1(CC)CN(c2ccccc2)c2cc(Cl)c(O/C=C(\F)C(=O)O)cc2S(=O)(=O)C1 (single isomer, unassigned) [Example 47, (Z)-3-((3-butyl-7-chloro-3-ethyl-1,1-dioxido-5-phenyl-2,3,4,5-tetrahydro-1,5-benzothiazepin-8-yl)oxy)-2-fluoroacrylic acid] | 0.025 | 0.339 | 0.362 | 
3 | CCCCC1(CC)CN(c2ccccc2)c2cc(SC)c(O/C=C(\F)C(=O)O)cc2S(=O)(=O)N1 (racemic) [Example 84, (Z)-3-((3-butyl-3-ethyl-7-(methylthio)-1,1-dioxido-5-phenyl-2,3,4,5-tetrahydro-1,2,5-benzothiadiazepin-8-yl)oxy)-2-fluoroacrylic Acid] | 0.031 | 0.028 | 0.559 | 
4 | CCCCC1(CCCC)CN(c2ccc(NS(=O)(=O)C3CC3)cc2)c2cc(SC)c(O/C=C/C(=O)O)cc2S(=O)(=O)C1 [Example 9, (E)-3-((3,3-dibutyl-5-(4-(cyclopropanesulfonamido)phenyl)-7-(methylthio)-1,1-dioxido-2,3,4,5-tetrahydro-1,5-benzothiazepin-8-yl)oxy)acrylic Acid] | 1.09 | 1.2 | 3.08 | 
5 | CCCCC1(CCCC)CN(c2ccccc2)c2cc(CC)c(O/C=C/C(=O)O)cc2S(=O)(=O)C1 [Example 12, (E)-3-((3,3-dibutyl-7-ethyl-1,1-dioxido-5-phenyl-2,3,4,5-tetrahydro-1,5-benzothiazepin-8-yl)oxy)acrylic Acid] | 0.393 | 0.482 | 2.61 | 
6 | CCCCC1(CCCC)CN(c2ccccc2)c2cc(C3CC3)c(O/C=C/C(=O)O)cc2S(=O)(=O)C1 [Example 7, (E)-3-((3,3-dibutyl-7-cyclopropyl-1,1-dioxido-5-phenyl-2,3,4,5-tetrahydro-1,5-benzothiazepin-8-yl)oxy)acrylic Acid] | 0.749 | 0.217 | 3.19 | 
7 | CCCCC1(CCCC)CN(c2ccc(F)c(F)c2)c2cc(SC)c(O/C=C(\F)C(=O)O)cc2S(=O)(=O)C1 [Example 107, (Z)-3-((3,3-dibutyl-5-(3,4-difluorophenyl)-7-(methylthio)-1,1-dioxido-2,3,4,5-tetrahydro-1,5-benzothiazepin-8-yl)oxy)-2-fluoroacrylic Acid] | 0.05 | 0.059 | 0.365 | 
8 | CCCCC1(CC)CN(c2ccccc2)c2cc(Br)c(O/C=C/C(=O)O)cc2S(=O)(=O)N1 (stereo not drawn) [Example 87, (E)-3-((7-bromo-3-butyl-3-ethyl-1,1-dioxido-5-phenyl-2,3,4,5-tetrahydro-1,2,5-benzothiadiazepin-8-yl)oxy)acrylic Acid] | 0.22 | 0.157 | 1.07 | 
9 | CCC1(CC)CN(c2ccccc2)c2cc(Br)c(O/C=C(\F)C(=O)O)cc2S(=O)(=O)C1 [Example 56, (Z)-3-((7-bromo-3,3-diethyl-1,1-dioxido-5-phenyl-2,3,4,5-tetrahydro-1,5-benzothiazepin-8-yl)oxy)-2-fluoroacrylic Acid] | 0.037 | 0.38 | 0.175 | 
10 | CCCCC1(CC)CN(c2ccccc2)c2cc(SC)c(O/C=C(\F)C(=O)O)cc2S(=O)(=O)N1C (racemic) [Example 98, (Z)-3-((3-butyl-3-ethyl-2-methyl-7-(methylthio)-1,1-dioxido-5-phenyl-2,3,4,5-tetrahydro-1,2,5-benzothiadiazepin-8-yl)oxy)-2-fluoroacrylic Acid] | 0.022 | 0.286 | 0.671 | 
11 | CCCCC1(CC)CN(c2ccccc2)c2cc(N(C)C)c(O/C=C(\F)C(=O)O)cc2S(=O)(=O)C1 (stereo not drawn) [Example 108, (Z)-3-((3-butyl-7-(dimethylamino)-3-ethyl-1,1-dioxido-5-phenyl-2,3,4,5-tetrahydro-1,5-benzothiazepin-8-yl)oxy)-2-fluoroacrylic Acid] | 0.0059 | 0.0085 | 0.447 | 
12 | CCCC[C@@]1(CC)CN(c2ccccc2)c2cc(SC)c(O/C=C(\F)C(=O)O)cc2S(=O)(=O)N1 (single isomer, unassigned) [Example 85] | 0.071 | 0.007 | 1.11 | 
13 | CCCCC1(CCCC)CN(c2ccc(C(=O)NC(C)C)cc2)c2cc(SC)c(O/C=C/C(=O)O)cc2S(=O)(=O)C1 [Example 69, (E)-3-((3,3-dibutyl-5-(4-(isopropylcarbamoyl)phenyl)-7-(methylthio)-1,1-dioxido-2,3,4,5-tetrahydro-1,5-benzothiazepin-8-yl)oxy)acrylic Acid] | 0.364 | > 3 | 0.63 | 
14 | CCCCC1(CC)CN(c2ccccc2)c2cc(SCC)c(O/C=C(\F)C(=O)O)cc2S(=O)(=O)C1 (stereo not drawn) [Example 72, (Z)-3-((3-butyl-3-ethyl-7-(ethylthio)-1,1-dioxido-5-phenyl-2,3,4,5-tetrahydro-1,5-benzothiazepin-8-yl)oxy)-2-fluoroacrylic Acid] | 0.013 | 0.076 | 0.319 | 
15 | CCCC[C@@]1(CC)CN(c2ccccc2)c2cc(N(C)C)c(O/C=C(\F)C(=O)O)cc2S(=O)(=O)C1 (single isomer, unassigned) [Example 109] | 0.068 | 0.0065 | > 2.22 | 
16 | CCC1(CC)CN(c2ccccc2)c2cc(Br)c(O/C=C/C(=O)O)cc2S(=O)(=O)C1 [Example 55, (E)-3-((7-bromo-3,3-diethyl-1,1-dioxido-5-phenyl-2,3,4,5-tetrahydro-1,5-benzothiazepin-8-yl)oxy)acrylic Acid] | 0.1 | 0.487 | 0.328 | 
17 | CCCCC1(CCCC)CN(c2ccccc2)c2cc(SCC)c(O/C=C(\F)C(=O)O)cc2S(=O)(=O)C1 [Example 70, (Z)-3-((3,3-dibutyl-7-(ethylthio)-1,1-dioxido-5-phenyl-2,3,4,5-tetrahydro-1,5-benzothiazepin-8-yl)oxy)-2-fluoroacrylic Acid] | 0.081 | 0.125 | 0.716 | 
18 | CCCCC1(CCCC)CN(c2ccc(NS(C)(=O)=O)cc2)c2cc(SC)c(O/C=C/C(=O)O)cc2S(=O)(=O)C1 [Example 10, (E)-3-((3,3-dibutyl-5-(4-(methylsulfonamido)phenyl)-7-(methylthio)-1,1-dioxido-2,3,4,5-tetrahydro-1,5-benzothiazepin-8-yl)oxy)acrylic Acid] | 3.98 | 1.41 | 4.7 | 
19 | CCCCC1(CCCC)CN(c2ccc(O)cc2)c2cc(SC)c(O/C=C(\F)C(=O)O)cc2S(=O)(=O)C1 [Example 95, (Z)-3-((3,3-dibutyl-5-(4-hydroxyphenyl)-7-(methylthio)-1,1-dioxido-2,3,4,5-tetrahydro-1,5-benzothiazepin-8-yl)oxy)-2-fluoroacrylic Acid] | 0.077 | 0.017 | 1.22 | 
20 | CCCCC1(CC)CN(c2ccccc2)c2cc(I)c(O/C=C/C(=O)O)cc2S(=O)(=O)C1 (single isomer, unassigned) [Example 58, (E)-3-((3-butyl-3-ethyl-7-iodo-1,1-dioxido-5-phenyl-2,3,4,5-tetrahydro-1,5-benzothiazepin-8-yl)oxy)acrylic acid] | 0.084 | 0.024 |  | 1.5
